Experimental data taken from patent US9593122B2, “Substituted pyrazolylpyrazole derivative and use of same as herbicide” (KYOYU AGRI CO., LTD., priority 2013, dated 2017).

Tests used:
Rice plants = assay: Paddy herbicidal activity test, phytotoxicity to transplanted rice; format: in vivo; conditions: rice transplanted at 2.0 leaf stage, 30 days
Protocol: Rice paddy soil was filled into a 1/10000 are pot followed by the addition of suitable amounts of water and chemical fertilizer, kneading, seeding with Echinochloa crus-galli, Monochoria vaginalis and Scirpus juncoides and maintaining in an irrigated state at a water depth of 3 cm.
Wettable powder of Target Compound (I) shown in Table 1 prepared in compliance with the preparation examples were diluted with a suitable amount of water, rice plants in the 2.0 leaf stage were transplanted during 3.5 leaf stage of Echinochloa crus-galli, and treated by dropping in chemical in the prescribed amount per are using a pipette.
(§1) After treating for 30 days in a glass greenhouse at an average atmospheric temperature of 30° C., the herbicidal efficacy thereof was investigated.
Evaluation of herbicidal efficacy was carried out by comparing growth inhibition rate (%) with an untreated group, while evaluation of phytotoxicity was carried out by comparing growth inhibition rate (%) with the state of a complete eradication group, and were evaluated at 11 levels indicated below.

Monochoria vaginalis = assay: Paddy herbicidal activity test; format: in vivo; conditions: irrigated paddy pot, 30 days
Summary of the method: (§2)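 Flooded paddy-soil pots (3 cm water) were sown with Echinochloa, Monochoria and Scirpus, and rice at the 2.0-leaf stage was transplanted. Diluted wettable powder was dripped in per are at weed 3.5-leaf stage. After 30 days in a greenhouse (~30 °C), growth inhibition versus untreated plants was scored on an 11-level scale.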

Echinochloa crus-galli = assay: Paddy herbicidal activity test; format: in vivo; conditions: irrigated paddy pot, treated at 3.5 leaf stage of Echinochloa crus-galli, 30 days
Summary of the method: as §2

Scirpus juncoides = assay: Paddy herbicidal activity test; format: in vivo; conditions: irrigated paddy pot, 30 days
Summary of the method: as §2

Chenopodium album [1] = assay: Weed foliar treatment test; format: in vivo; conditions: foliar spray, 3 weeks
Protocol: (§3) Soil was filled into a 1/6000 are pot followed by seeding with Digitaria ciliaris, Chenopodium album and Amaranthus retroflexus, covering with soil, and cultivating in a glass greenhouse at an average atmospheric temperature of 25° C.
(§4) Wettable powder of Target Compound (I) shown in Table 1 prepared in compliance with the preparation examples were diluted with water to the prescribed amount of chemical and uniformly sprayed onto the weeds using 15 liters of sprayed water per are when Digitaria ciliaris had grown to the 1.0 to 2.0 leaf stage.
(§5) After treating for 3 weeks in a glass greenhouse at an average atmospheric temperature of 25° C., the herbicidal efficacy thereof was investigated.
(§6) Evaluation of herbicidal efficacy was carried out in the same manner as the above-mentioned Test Example 1.

Amaranthus retroflexus [2] = assay: Weed foliar treatment test; format: in vivo; conditions: foliar spray, 3 weeks
Protocol: as §3, §4, §5, §6

Digitaria ciliaris [3] = assay: Weed foliar treatment test; format: in vivo; conditions: foliar spray at 1.0 to 2.0 leaf stage of Digitaria ciliaris, 3 weeks
Protocol: as §3, §4, §5, §6

Chenopodium album [4] = assay: Farming soil treatment test; format: in vivo; conditions: soil surface spray prior to weed growth, 30 days
Protocol: (§7) Field soil was filled into a 1/6000 are pot followed by seeding with Digitaria ciliaris, Chenopodium album and Amaranthus retroflexus and covering with soil.
(§8) Wettable powder of compounds of formula (I) shown in Table 1 prepared in compliance with the preparation examples were diluted with water to the prescribed amount of chemical and uniformly sprayed onto each soil surface layer using 10 liters of sprayed water per are prior to weed growth following seeding.
as §1
(§9) Evaluation of herbicidal efficacy is carried out in the same manner as the above-mentioned Test Example 1.

Amaranthus retroflexus [5] = assay: Farming soil treatment test; format: in vivo; conditions: soil surface spray prior to weed growth, 30 days
Protocol: as §7, §8, §1, §9

Digitaria ciliaris [6] = assay: Farming soil treatment test; format: in vivo; conditions: soil surface spray prior to weed growth, 30 days
Protocol: as §7, §8, §1, §9

| Compound | Rice plants phytotoxicity (growth inhibition level) (Rice plants; 1g a.i./10a) | Rice plants phytotoxicity (growth inhibition level) (Rice plants; 5g a.i./10a) | Monochoria vaginalis herbicidal efficacy (growth inhibition level) (Monochoria vaginalis; 1g a.i./10a) | Monochoria vaginalis herbicidal efficacy (growth inhibition level) (Monochoria vaginalis; 5g a.i./10a) | Echinochloa crus-galli herbicidal efficacy (growth inhibition level) (Echinochloa crus-galli; 1g a.i./10a) | Echinochloa crus-galli herbicidal efficacy (growth inhibition level) (Echinochloa crus-galli; 5g a.i./10a) | Scirpus juncoides herbicidal efficacy (growth inhibition level) (Scirpus juncoides; 1g a.i./10a) | Scirpus juncoides herbicidal efficacy (growth inhibition level) (Scirpus juncoides; 5g a.i./10a) | Chenopodium album herbicidal efficacy (growth inhibition level) (Chenopodium album [1]; 5g a.i./10a) | Chenopodium album herbicidal efficacy (growth inhibition level) (Chenopodium album [1]; 10g a.i./10a) | Amaranthus retroflexus herbicidal efficacy (growth inhibition level) (Amaranthus retroflexus [2]; 5g a.i./10a) | Amaranthus retroflexus herbicidal efficacy (growth inhibition level) (Amaranthus retroflexus [2]; 10g a.i./10a) | Digitaria ciliaris herbicidal efficacy (growth inhibition level) (Digitaria ciliaris [3]; 5g a.i./10a) | Digitaria ciliaris herbicidal efficacy (growth inhibition level) (Digitaria ciliaris [3]; 10g a.i./10a) | Chenopodium album herbicidal efficacy (growth inhibition level) (Chenopodium album [4]; 5g a.i./10a) | Chenopodium album herbicidal efficacy (growth inhibition level) (Chenopodium album [4]; 10g a.i./10a) | Amaranthus retroflexus herbicidal efficacy (growth inhibition level) (Amaranthus retroflexus [5]; 5g a.i./10a) | Amaranthus retroflexus herbicidal efficacy (growth inhibition level) (Amaranthus retroflexus [5]; 10g a.i./10a) | Digitaria ciliaris herbicidal efficacy (growth inhibition level) (Digitaria ciliaris [6]; 5g a.i./10a) | Digitaria ciliaris herbicidal efficacy (growth inhibition level) (Digitaria ciliaris [6]; 10g a.i./10a) | further results |
| --- | --- | --- | --- | --- | --- | --- | --- | --- | --- | --- | --- | --- | --- | --- | --- | --- | --- | --- | --- | --- | --- |
| C=C(C)CNc1c(C#N)cnn1-c1nn2c(c1Cl)CCCC2 [Compound 1, 1-(3-chloro-4,5,6,7-tetrahydropyrazolo[1,5-a]pyridin-2-yl)-5-(2-methylprop-2-enylamino)pyrazole-4-carbonitrile] | 0 (0 (exponent): 0% to less than 10% (growth inhibition rate)) | 0 (0 (exponent): 0% to less than 10% (growth inhibition rate)) | 9 (9: 90% to less than 100%) | 9 (9: 90% to less than 100%) | 8 (8: 80% to less than 90%) | 9 (9: 90% to less than 100%) | 7 (7: 70% to less than 80%) | 8 (8: 80% to less than 90%) |  |  |  |  |  |  |  |  |  |  |  |  | melting point: 97 to 98 °C |
| C=CCN(CC)c1c(C#N)cnn1-c1nn2c(c1Cl)CCCC2 [Control agent 4.75, reference compound] | 0 (0 (exponent): 0% to less than 10% (growth inhibition rate)) | 1 (1: 10% to less than 20%) | 4 (4: 40% to less than 50%) | 5 (5: 50% to less than 60%) | 3 (3: 30% to less than 40%) | 4 (4: 40% to less than 50%) | 2 (2: 20% to less than 30%) | 2 (2: 20% to less than 30%) | 6 (6: 60% to less than 70%) | 7 (7: 70% to less than 80%) | 5 (5: 50% to less than 60%) | 7 (7: 70% to less than 80%) | 4 (4: 40% to less than 50%) | 5 (5: 50% to less than 60%) | 5 (5: 50% to less than 60%) | 6 (6: 60% to less than 70%) | 6 (6: 60% to less than 70%) | 6 (6: 60% to less than 70%) | 3 (3: 30% to less than 40%) | 4 (4: 40% to less than 50%) |  |
| C=CCNc1c(C#N)cnn1-c1nn2c(c1Cl)CCCC2 [Control agent 4.59, reference compound] | 1 (1: 10% to less than 20%) | 2 (2: 20% to less than 30%) | 2 (2: 20% to less than 30%) | 4 (4: 40% to less than 50%) | 2 (2: 20% to less than 30%) | 5 (5: 50% to less than 60%) | 2 (2: 20% to less than 30%) | 4 (4: 40% to less than 50%) | 6 (6: 60% to less than 70%) | 7 (7: 70% to less than 80%) | 6 (6: 60% to less than 70%) | 7 (7: 70% to less than 80%) | 4 (4: 40% to less than 50%) | 6 (6: 60% to less than 70%) | 5 (5: 50% to less than 60%) | 6 (6: 60% to less than 70%) | 5 (5: 50% to less than 60%) | 6 (6: 60% to less than 70%) | 5 (5: 50% to less than 60%) | 6 (6: 60% to less than 70%) |  |
| C=C(Cl)CN(C(=O)C(F)(F)F)c1c(C#N)cnn1-c1nn2c(c1Cl)CCCC2 [Compound 3, (N-1-(3-chloro-4,5,6,7-tetrahydropyrazolo[1,5-a]pyridin-2-yl)-4-cyanopyrazol-5-yl)-N-(2-chloroprop-2-enyl)-2,2,2-trifluoroacetamide] | 0 (0 (exponent): 0% to less than 10% (growth inhibition rate)) | 0 (0 (exponent): 0% to less than 10% (growth inhibition rate)) | 9 (9: 90% to less than 100%) | 9 (9: 90% to less than 100%) | 9 (9: 90% to less than 100%) | 10 (10: 100%) | 7 (7: 70% to less than 80%) | 8 (8: 80% to less than 90%) | 10 (10: 100%) | 10 (10: 100%) | 10 (10: 100%) | 10 (10: 100%) | 10 (10: 100%) | 10 (10: 100%) | 10 (10: 100%) | 10 (10: 100%) | 10 (10: 100%) | 10 (10: 100%) | 10 (10: 100%) | 10 (10: 100%) |  |
| C#CCNc1c(C#N)cnn1-c1nn2c(c1Cl)CCCC2 [Control agent 4.85, 4.156, reference compound] | 2 (2: 20% to less than 30%) | 2 (2: 20% to less than 30%) | 1 (1: 10% to less than 20%) | 3 (3: 30% to less than 40%) | 2 (2: 20% to less than 30%) | 3 (3: 30% to less than 40%) | 0 (0 (exponent): 0% to less than 10% (growth inhibition rate)) | 1 (1: 10% to less than 20%) | 5 (5: 50% to less than 60%) | 6 (6: 60% to less than 70%) | 4 (4: 40% to less than 50%) | 6 (6: 60% to less than 70%) | 3 (3: 30% to less than 40%) | 5 (5: 50% to less than 60%) | 4 (4: 40% to less than 50%) | 5 (5: 50% to less than 60%) | 3 (3: 30% to less than 40%) | 6 (6: 60% to less than 70%) | 3 (3: 30% to less than 40%) | 4 (4: 40% to less than 50%) |  |
